Data on five molecules can be found in patent US5324725A, “7-fused 2-(piperazinoalkyl) indole derivatives, intermediates and compositions thereof” (Kali-Chemie Pharma GmbH, priority 1991, dated 1994).

This assay deals with P.A.F.-induced aggregation of platelets from rabbit blood. The assay can be described thus: Anti-P.A.F. effect in vitro: inhibition of P.A.F.-induced platelet aggregation. To be noted: Oryctolagus cuniculus, Platelet, test substance concentration 10^-5 mol/l. The class given is cell-based, rabbit (New Zealand hybrids). In outline: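 Washed, aspirin-treated rabbit platelets (4×10^9/ml stock suspension) in modified Tyrode buffer, pH 7.4, preincubated 90 s with test compound at 10^-5 mol/l final, then challenged with P.A.F. Aggregation followed 4–5 min in an aggregometer. Inhibition expressed in % relative to P.A.F.-only (100%) and platelet-only (0%) controls.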
As for `Cc1ccnc(N2CCN(CC(O)c3c(C4CCCCC4)n4c5c(cccc35)CCC4)CC2)c1` (centres unmarked) [Example 85], testing at 10 µM gave an inhibition of 100%.
The same measure for `Cc1ccnc(N2CCN(CCc3c(C)n4c5c(cccc35)CCC4C3CCCCC3)CC2)c1` (centres unmarked) [Example 87]: 100%; for `Cc1ccnc(N2CCN(CCc3c(C)n4c5c(c(C(O)C(C)C)ccc35)SCC4)CC2)c1` (centres unmarked) [Example 89]: 100%; for `Cc1ccnc(N2CCN(CCc3c(C)n4c5c(ccc(C(O)C(C)C)c35)SCC4)CC2)c1` (centres unmarked) [Example 90]: 64%.
As for `Cc1ccnc(N2CCN(CCc3c(C)n4c5c(ccc(C(=O)C(C)C)c35)SCC4)CC2)c1` [Example 91], the figure is 58%.

For orientation: inhibition means the share of the control response that was lost under treatment. Lower therefore signals a response near the control.
